Experimental findings from ChEMBL document CHEMBL3751832, “Synthesis, in vitro and computational studies of 1,4-disubstituted 1,2,3-triazoles as potential α-glucosidase inhibitors” (Bioorg Med Chem Lett, 2016) are described below.

Where a name gives a salt, the structure may show the parent alone.

This test is described as follows: Inhibition of yeast type-3 alpha-glucosidase using p-nitrophenyl-alpha-D-glucopyranoside as substrate after 30 mins. More on the design: species or system Saccharomyces cerevisiae.

`O=[N+]([O-])c1ccc(-n2cc(-c3ccccc3)nn2)cc1`: the half-maximal inhibitory concentration (IC50) was 235 µM.

In the case of `COC(=O)Cn1cc(-c2ccccc2)nn1`, the IC50 was 255 µM.

Consider `OC1(c2cn(-c3ccccc3Cl)nn2)CCCCC1`, for which the midpoint of inhibition, the IC50, lay at 370 µM.

`Clc1ccccc1-n1cc(-c2ccccc2)nn1` displayed an IC50 of 57.2 µM. This IC50 is about 6.5-fold lower than that of the compound before.

`N#Cc1cc([N+](=O)[O-])ccc1-n1cc(C2(O)CCCCC2)nn1` returned an IC50 of 49.7 µM.

In the case of `O=[N+]([O-])c1ccc(-n2cc(C3(O)CCCCC3)nn2)cc1`, half-maximal inhibition (IC50) was put at 320 µM.

Take `CC(=O)c1cccc(-n2cc(C3(O)CCCCC3)nn2)c1`: the IC50 came to 320 µM.

Turning to `COc1cccc(-n2cc(C3(O)CCCCC3)nn2)c1`, inhibition was half-maximal at 245 µM (IC50).

Compound `CC(=O)c1cccc(-n2cc(-c3ccccc3)nn2)c1` showed an IC50 of 265 µM.

`CC(=O)c1ccccc1-n1cc(-c2ccccc2)nn1` displayed an IC50 of 313 µM.

For `OC[C@H]1NC[C@H](O)[C@@H](O)[C@@H]1O` [DUVOGLUSTAT HYDROCHLORIDE], half-maximal inhibition (IC50) required 3.49 µM.
